Data published in patent US20250333424A1, “ANTIVIRAL COMPOUNDS” (Gilead Sciences, Inc., priority 2024, published 2025).

Test system: monocytic THP1 cells infected with HIV VSV-G pseudotyped GFP-NEF reporter virus
Assay: cells
Assay type: cell-based
Conditions: Human immunodeficiency virus 1, THP-1, 24 h

SMILES	EC50
Cc1cc(/C=C/C#N)cc(C)c1Oc1nc(NC23CC(C#N)(C2)C3)nc2c1C1(C)OCC3(CCOCC3)CN1C2=O (stereo not drawn) [Example 200, (E)-3-((4′-(4-(2-cyanovinyl)-2,6-dimethylphenoxy)-4b′-methyl-10′-oxo-2,3,4b′,5,6,10′-hexahydro-6′H,8′H-spiro[pyran-4,7′-pyrimido[5′,4′:3,4]pyrrolo[2,1-b][1,3]oxazin]-2′-yl)amino)bicyclo[1.1.1]pentane-1-carbonitrile]	175 nM
Cc1cc(/C=C/C#N)cc(C)c1Oc1nc(NC23CC(C#N)(C2)C3)nc2c1C1(C)OC[C@@H](F)CN1C2=O (stereo partly drawn) [Example 201, 3-(((7S)-4-(4-((E)-2-cyanovinyl)-2,6-dimethylphenoxy)-7-fluoro-4b-methyl-10-oxo-4b,7,8,10-tetrahydro-6H-pyrimido[5′,4′:3,4]pyrrolo[2,1-b][1,3]oxazin-2-yl)amino)bicyclo[1.1.1]pentane-1-carbonitrile]	88.6 nM
Cc1cc(/C=C/C#N)cc(C)c1Oc1nc(NC23CC(C#N)(C2)C3)nc2c1C1(C)OC[C@H](F)CN1C2=O (stereo partly drawn) [Example 202, 3-(((7R)-4-(4-((E)-2-cyanovinyl)-2,6-dimethylphenoxy)-7-fluoro-4b-methyl-10-oxo-4b,7,8,10-tetrahydro-6H-pyrimido[5′,4′:3,4]pyrrolo[2,1-b][1,3]oxazin-2-yl)amino)bicyclo[1.1.1]pentane-1-carbonitrile]	18.9 nM
COCCN1C(=O)c2nc(NC34CC(C#N)(C3)C4)nc(Oc3c(C)cc(/C=C/C#N)cc3C)c2C1C (stereo not drawn) [Example 203, (E)-3-((4-(4-(2-cyanovinyl)-2,6-dimethylphenoxy)-6-(2-methoxyethyl)-5-methyl-7-oxo-6,7-dihydro-5H-pyrrolo[3,4-d]pyrimidin-2-yl)amino)bicyclo[1.1.1]pentane-1-carbonitrile]	27.5 nM
CCN1C(=O)c2nc(NC34CC(C#N)(C3)C4)nc(Oc3c(C)cc(/C=C/C#N)cc3C)c2C1C (stereo not drawn) [Example 204, (E)-3-((4-(4-(2-cyanovinyl)-2,6-dimethylphenoxy)-6-ethyl-5-methyl-7-oxo-6,7-dihydro-5H-pyrrolo[3,4-d]pyrimidin-2-yl)amino)bicyclo[1.1.1]pentane-1-carbonitrile]	23.4 nM
C=CCN1C(=O)c2nc(NC34CC(C#N)(C3)C4)nc(Oc3c(C)cc(/C=C/C#N)cc3C)c2C1C (stereo not drawn) [Example 205, (E)-3-((6-allyl-4-(4-(2-cyanovinyl)-2,6-dimethylphenoxy)-5-methyl-7-oxo-6,7-dihydro-5H-pyrrolo[3,4-d]pyrimidin-2-yl)amino)bicyclo[1.1.1]pentane-1-carbonitrile]	42.7 nM
Cc1cc(/C=C/C#N)cc(C)c1Oc1nc(NC23CC(C#N)(C2)C3)nc2c1C(C)N(C(C)C)C2=O (stereo not drawn) [Example 206, (E)-3-((4-(4-(2-cyanovinyl)-2,6-dimethylphenoxy)-6-isopropyl-5-methyl-7-oxo-6,7-dihydro-5H-pyrrolo[3,4-d]pyrimidin-2-yl)amino)bicyclo[1.1.1]pentane-1-carbonitrile]	280 nM
Cc1cc(/C=C/C#N)cc(C)c1Oc1nc(NC23CC(C#N)(C2)C3)nc2c1C(C)N(CCC(F)(F)F)C2=O (stereo not drawn) [Example 207, (E)-3-((4-(4-(2-cyanovinyl)-2,6-dimethylphenoxy)-5-methyl-7-oxo-6-(3,3,3-trifluoropropyl)-6,7-dihydro-5H-pyrrolo[3,4-d]pyrimidin-2-yl)amino)bicyclo[1.1.1]pentane-1-carbonitrile]	70.3 nM
Cc1cc(/C=C/C#N)cc(C)c1Oc1nc(NC23CC(C#N)(C2)C3)nc2c1C(C)N(C1COC1)C2=O (stereo not drawn) [Example 208, (E)-3-((4-(4-(2-cyanovinyl)-2,6-dimethylphenoxy)-5-methyl-6-(oxetan-3-yl)-7-oxo-6,7-dihydro-5H-pyrrolo[3,4-d]pyrimidin-2-yl)amino)bicyclo[1.1.1]pentane-1-carbonitrile]	28.8 nM
Cc1cc(/C=C/C#N)cc(C)c1Oc1nc(NC23CC(C#N)(C2)C3)nc2c1C(C)N(CCc1cn(C)cn1)C2=O (stereo not drawn) [Example 209, (E)-3-((4-(4-(2-cyanovinyl)-2,6-dimethylphenoxy)-5-methyl-6-(2-(1-methyl-1H-imidazol-4-yl)ethyl)-7-oxo-6,7-dihydro-5H-pyrrolo[3,4-d]pyrimidin-2-yl)amino)bicyclo[1.1.1]pentane-1-carbonitrile]	57.7 nM
Cc1cc(/C=C/C#N)cc(C)c1Oc1nc(NC23CC(C#N)(C2)C3)nc2c1C(C)N(CC1CC1)C2=O (stereo not drawn) [Example 210, (E)-3-((4-(4-(2-cyanovinyl)-2,6-dimethylphenoxy)-6-(cyclopropylmethyl)-5-methyl-7-oxo-6,7-dihydro-5H-pyrrolo[3,4-d]pyrimidin-2-yl)amino)bicyclo[1.1.1]pentane-1-carbonitrile]	125 nM
Cc1cc(/C=C/C#N)cc(C)c1Oc1nc(NC23CC(C#N)(C2)C3)nc2c1C(C)N(CCc1cnn(C)c1)C2=O (stereo not drawn) [Example 211, (E)-3-((4-(4-(2-cyanovinyl)-2,6-dimethylphenoxy)-5-methyl-6-(2-(1-methyl-1H-pyrazol-4-yl)ethyl)-7-oxo-6,7-dihydro-5H-pyrrolo[3,4-d]pyrimidin-2-yl)amino)bicyclo[1.1.1]pentane-1-carbonitrile]	54.5 nM
Cc1cc(/C=C/C#N)cc(C)c1Oc1nc(NC23CC(C#N)(C2)C3)nc2c1C(C)N(Cc1ccnn1C)C2=O (stereo not drawn) [Example 212, (E)-3-((4-(4-(2-cyanovinyl)-2,6-dimethylphenoxy)-5-methyl-6-((1-methyl-1H-pyrazol-5-yl)methyl)-7-oxo-6,7-dihydro-5H-pyrrolo[3,4-d]pyrimidin-2-yl)amino)bicyclo[1.1.1]pentane-1-carbonitrile]	47.1 nM
Cc1cc(/C=C/C#N)cc(C)c1Oc1nc(NC23CC(C#N)(C2)C3)nc2c1C(C)N(Cc1nccn1C)C2=O (stereo not drawn) [Example 213, (E)-3-((4-(4-(2-cyanovinyl)-2,6-dimethylphenoxy)-5-methyl-6-((1-methyl-1H-imidazol-2-yl)methyl)-7-oxo-6,7-dihydro-5H-pyrrolo[3,4-d]pyrimidin-2-yl)amino)bicyclo[1.1.1]pentane-1-carbonitrile]	43.9 nM
Cc1cc(/C=C/C#N)cc(C)c1Oc1nc(NC23CC(C#N)(C2)C3)nc2c1C(C)N(CCN1CCOCC1)C2=O (stereo not drawn) [Example 214, (E)-3-((4-(4-(2-cyanovinyl)-2,6-dimethylphenoxy)-5-methyl-6-(2-morpholinoethyl)-7-oxo-6,7-dihydro-5H-pyrrolo[3,4-d]pyrimidin-2-yl)amino)bicyclo[1.1.1]pentane-1-carbonitrile]	59.1 nM
Cc1cc(/C=C/C#N)cc(C)c1Oc1nc(NC23CC(C#N)(C2)C3)nc2c1C(C)N(C1CCOCC1)C2=O (stereo not drawn) [Example 215, (E)-3-((4-(4-(2-cyanovinyl)-2,6-dimethylphenoxy)-5-methyl-7-oxo-6-(tetrahydro-2H-pyran-4-yl)-6,7-dihydro-5H-pyrrolo[3,4-d]pyrimidin-2-yl)amino)bicyclo[1.1.1]pentane-1-carbonitrile]	109 nM
Cc1cc(/C=C/C#N)cc(C)c1Oc1nc(NC23CC(C#N)(C2)C3)nc2c1C(C)N(C1CCC1)C2=O (stereo not drawn) [Example 216, (E)-3-((4-(4-(2-cyanovinyl)-2,6-dimethylphenoxy)-6-cyclobutyl-5-methyl-7-oxo-6,7-dihydro-5H-pyrrolo[3,4-d]pyrimidin-2-yl)amino)bicyclo[1.1.1]pentane-1-carbonitrile]	77.8 nM
Cc1cc(/C=C/C#N)cc(C)c1Oc1nc(NC23CC(C#N)(C2)C3)nc2c1C(C)N(c1cnn(C(F)(F)F)c1)C2=O (stereo not drawn) [Example 217, (E)-3-((4-(4-(2-cyanovinyl)-2,6-dimethylphenoxy)-5-methyl-7-oxo-6-(1-(trifluoromethyl)-1H-pyrazol-4-yl)-6,7-dihydro-5H-pyrrolo[3,4-d]pyrimidin-2-yl)amino)bicyclo[1.1.1]pentane-1-carbonitrile]	157 nM
CCn1cc(N2C(=O)c3nc(NC45CC(C#N)(C4)C5)nc(Oc4c(C)cc(/C=C/C#N)cc4C)c3C2C)cn1 (stereo not drawn) [Example 218, (E)-3-((4-(4-(2-cyanovinyl)-2,6-dimethylphenoxy)-6-(1-ethyl-1H-pyrazol-4-yl)-5-methyl-7-oxo-6,7-dihydro-5H-pyrrolo[3,4-d]pyrimidin-2-yl)amino)bicyclo[1.1.1]pentane-1-carbonitrile]	47.3 nM
COCCn1cc(N2C(=O)c3nc(NC45CC(C#N)(C4)C5)nc(Oc4c(C)cc(/C=C/C#N)cc4C)c3C2C)cn1 (stereo not drawn) [Example 219, (E)-3-((4-(4-(2-cyanovinyl)-2,6-dimethylphenoxy)-6-(1-(2-methoxyethyl)-1H-pyrazol-4-yl)-5-methyl-7-oxo-6,7-dihydro-5H-pyrrolo[3,4-d]pyrimidin-2-yl)amino)bicyclo[1.1.1]pentane-1-carbonitrile]	40.7 nM
Cc1cc(/C=C/C#N)cc(C)c1Oc1nc(NC23CC(C#N)(C2)C3)nc2c1C(C)N(c1c(C)nn(C)c1C)C2=O (stereo not drawn) [Example 220, (E)-3-((4-(4-(2-cyanovinyl)-2,6-dimethylphenoxy)-5-methyl-7-oxo-6-(1,3,5-trimethyl-1H-pyrazol-4-yl)-6,7-dihydro-5H-pyrrolo[3,4-d]pyrimidin-2-yl)amino)bicyclo[1.1.1]pentane-1-carbonitrile]	155 nM
Cc1cc(/C=C/C#N)cc(C)c1Oc1nc(NC23CC(C#N)(C2)C3)nc2c1C(C)N(c1cnn(C)c1C)C2=O (stereo not drawn) [Example 221, (E)-3-((4-(4-(2-cyanovinyl)-2,6-dimethylphenoxy)-6-(1,5-dimethyl-1H-pyrazol-4-yl)-5-methyl-7-oxo-6,7-dihydro-5H-pyrrolo[3,4-d]pyrimidin-2-yl)amino)bicyclo[1.1.1]pentane-1-carbonitrile]	72.9 nM
Cc1cc(/C=C/C#N)cc(C)c1Oc1nc(NC23CC(C#N)(C2)C3)nc2c1C(C)N(c1cn(C)nc1C)C2=O (stereo not drawn) [Example 222, (E)-3-((4-(4-(2-cyanovinyl)-2,6-dimethylphenoxy)-6-(1,3-dimethyl-1H-pyrazol-4-yl)-5-methyl-7-oxo-6,7-dihydro-5H-pyrrolo[3,4-d]pyrimidin-2-yl)amino)bicyclo[1.1.1]pentane-1-carbonitrile]	70.7 nM
COCn1cc(N2C(=O)c3nc(NC45CC(C#N)(C4)C5)nc(Oc4c(C)cc(/C=C/C#N)cc4C)c3C2C)cn1 (stereo not drawn) [Example 223, (E)-3-((4-(4-(2-cyanovinyl)-2,6-dimethylphenoxy)-6-(1-(methoxymethyl)-1H-pyrazol-4-yl)-5-methyl-7-oxo-6,7-dihydro-5H-pyrrolo[3,4-d]pyrimidin-2-yl)amino)bicyclo[1.1.1]pentane-1-carbonitrile]	38.3 nM
